Species on record: Rattus norvegicus
Assay: DrugMatrix - Regimen: Daily Repeat
Assay type: toxicity, organism-based, Sprague-Dawley
Parameters: regimen Daily Repeat, gender Male, age 6-8 weeks
Settings: in vivo, po, route oral GAVAGE, vehicle .5 % CMC; for BASOPHIL / EOSINOPHIL / ERYTHROCYTE COUNT / HEMATOCRIT / HEMOGLOBIN / LEUKOCYTE COUNT / LYMPHOCYTE / MEAN CORPUSCULAR HEMOGLOBIN / MEAN CORPUSCULAR HEMOGLOBIN CONCENTRATION / MEAN CORPUSCULAR VOLUME / MONOCYTE / NEUTROPHIL / PLATELET COUNT: tissue Blood; for ALANINE AMINOTRANSFERASE / ALBUMIN / ALKALINE PHOSPHATASE / ASPARTATE AMINOTRANSFERASE / BLOOD UREA NITROGEN / CHLORIDE / CHOLESTEROL / CREATINE PHOSPHOKINASE / CREATININE / GLUCOSE / PHOSPHORUS / POTASSIUM / SODIUM / TOTAL BILIRUBIN / TOTAL PROTEIN: tissue Plasma
[1] = 0 mg/kg, 72 h, dose level Control, time 3 day
[2] = 0 mg/kg, 120 h, dose level Control, time 5 day
[3] = 25 mg/kg, 72 h, dose level Low, time 3 day
[4] = 25 mg/kg, 120 h, dose level Low, time 5 day

## C[C@]12CCC(=O)C=C1CC[C@@H]1[C@@H]2C(=O)C[C@@]2(C)[C@H]1CC[C@]2(O)C(=O)CO [CORTISONE]
[1]
  BASOPHIL: 1.52%
  EOSINOPHIL: 0.98%
  ERYTHROCYTE COUNT: 6.96 x10E6/uL
  HEMATOCRIT: 44.65%
  HEMOGLOBIN: 13.62 G/DL
  LEUKOCYTE COUNT: 9.83 x10E3/uL
  LYMPHOCYTE: 76.48%
  MEAN CORPUSCULAR HEMOGLOBIN: 19.57 pg
  MEAN CORPUSCULAR HEMOGLOBIN CONCENTRATION: 30.47 G/DL
  MEAN CORPUSCULAR VOLUME: 64.22 fL
  MONOCYTE: 2.13%
  NEUTROPHIL: 18.6%
  PLATELET COUNT: 1217.17 x10E3/uL
  ALANINE AMINOTRANSFERASE: 41 u/L
  ALBUMIN: 3.77 G/DL
  ALKALINE PHOSPHATASE: 411.83 u/L
  ASPARTATE AMINOTRANSFERASE: 62.83 u/L
  BLOOD UREA NITROGEN: 15.17 mg/dL
  CHLORIDE: 104.33 MEQ/L
  CHOLESTEROL: 71.17 mg/dL
  CREATINE PHOSPHOKINASE: 123.5 u/L
  CREATININE: 0.55 mg/dL
  GLUCOSE: 182.67 mg/dL
  PHOSPHORUS: 11.23 mg/dL
  POTASSIUM: 7.03 MEQ/L
  SODIUM: 148 MEQ/L
  TOTAL BILIRUBIN: 0.57 mg/dL
  TOTAL PROTEIN: 6.85 G/DL
[2]
  BASOPHIL: 1.35%
  EOSINOPHIL: 0.43%
  ERYTHROCYTE COUNT: 6.96 x10E6/uL
  HEMATOCRIT: 44.35%
  HEMOGLOBIN: 13.98 G/DL
  LEUKOCYTE COUNT: 9.45 x10E3/uL
  LYMPHOCYTE: 80.83%
  MEAN CORPUSCULAR HEMOGLOBIN: 20.1 pg
  MEAN CORPUSCULAR HEMOGLOBIN CONCENTRATION: 31.52 G/DL
  MEAN CORPUSCULAR VOLUME: 63.72 fL
  MONOCYTE: 2.37%
  NEUTROPHIL: 14.05%
  PLATELET COUNT: 1298 x10E3/uL
  ALANINE AMINOTRANSFERASE: 42.17 u/L
  ALBUMIN: 3.77 G/DL
  ALKALINE PHOSPHATASE: 419 u/L
  ASPARTATE AMINOTRANSFERASE: 66.67 u/L
  BLOOD UREA NITROGEN: 16.67 mg/dL
  CHLORIDE: 103.17 MEQ/L
  CHOLESTEROL: 66.33 mg/dL
  CREATINE PHOSPHOKINASE: 148.33 u/L
  CREATININE: 0.58 mg/dL
  GLUCOSE: 196.83 mg/dL
  PHOSPHORUS: 11.8 mg/dL
  POTASSIUM: 6.47 MEQ/L
  SODIUM: 148.33 MEQ/L
  TOTAL BILIRUBIN: 0.53 mg/dL
  TOTAL PROTEIN: 6.77 G/DL
[3]
  BASOPHIL: 2.4%
  EOSINOPHIL: 0.4%
  ERYTHROCYTE COUNT: 6.64 x10E6/uL
  HEMATOCRIT: 45.5%
  HEMOGLOBIN: 13.9 G/DL
  LEUKOCYTE COUNT: 7.9 x10E3/uL
  LYMPHOCYTE: 78.6%
  MEAN CORPUSCULAR HEMOGLOBIN: 21 pg
  MEAN CORPUSCULAR HEMOGLOBIN CONCENTRATION: 30.6 G/DL
  MEAN CORPUSCULAR VOLUME: 68.5 fL
  MONOCYTE: 2.95%
  NEUTROPHIL: 15.4%
  PLATELET COUNT: 1648.5 x10E3/uL
  ALANINE AMINOTRANSFERASE: 43 u/L
  ALBUMIN: 3.8 G/DL
  ALKALINE PHOSPHATASE: 401 u/L
  ASPARTATE AMINOTRANSFERASE: 68.67 u/L
  BLOOD UREA NITROGEN: 12 mg/dL
  CHLORIDE: 103.67 MEQ/L
  CHOLESTEROL: 62.67 mg/dL
  CREATINE PHOSPHOKINASE: 120.67 u/L
  CREATININE: 0.53 mg/dL
  GLUCOSE: 178.33 mg/dL
  PHOSPHORUS: 12.83 mg/dL
  POTASSIUM: 6.87 MEQ/L
  SODIUM: 149 MEQ/L
  TOTAL BILIRUBIN: 0.47 mg/dL
  TOTAL PROTEIN: 6.63 G/DL
[4]
  BASOPHIL: 1.53%
  EOSINOPHIL: 0.33%
  ERYTHROCYTE COUNT: 7.03 x10E6/uL
  HEMATOCRIT: 45.13%
  HEMOGLOBIN: 14.27 G/DL
  LEUKOCYTE COUNT: 9 x10E3/uL
  LYMPHOCYTE: 77.9%
  MEAN CORPUSCULAR HEMOGLOBIN: 20.33 pg
  MEAN CORPUSCULAR HEMOGLOBIN CONCENTRATION: 31.67 G/DL
  MEAN CORPUSCULAR VOLUME: 64.27 fL
  MONOCYTE: 2.7%
  NEUTROPHIL: 16.73%
  PLATELET COUNT: 1381.67 x10E3/uL
  ALANINE AMINOTRANSFERASE: 45 u/L
  ALBUMIN: 3.7 G/DL
  ALKALINE PHOSPHATASE: 435 u/L
  ASPARTATE AMINOTRANSFERASE: 68.33 u/L
  BLOOD UREA NITROGEN: 15.33 mg/dL
  CHLORIDE: 103 MEQ/L
  CHOLESTEROL: 54 mg/dL
  CREATINE PHOSPHOKINASE: 128.67 u/L
  CREATININE: 0.5 mg/dL
  GLUCOSE: 186 mg/dL
  PHOSPHORUS: 12.57 mg/dL
  POTASSIUM: 6.6 MEQ/L
  SODIUM: 148 MEQ/L
  TOTAL BILIRUBIN: 0.47 mg/dL
  TOTAL PROTEIN: 6.6 G/DL
